Assay results as given in patent publication EP4324461A1, “(E)-N-CINAMOYLAMINOALKANOLES WITH MELANOGENESIS INHIBITORY ACTIVITY” (UNIWERSYTET JAGIELLONSKI, priority 2022, dated 2024).

Legend:
[1] = test system: neuroblastoma SH-SY5Y; experiment: Safety, LDH test in SH-SY5Y; format: cell-based; settings: 48 hours, positive control Triton X-100
Experimental: (§1) In order to test the safety of the compounds, both normal human cells were used: keratinocytes (HaCaT), fibroblasts (BJ), primary melanocytes that occur in the skin, as well as human cancer cells: the hepatocarcinoma line HepG2 and the neuroblastoma line SH-SY5Y, which are considered a model for the assessment of hepatocytotoxicity and neurocytotoxicity. The concentrations of the tested compounds in the range of 250-100 µM were used in the studies. The cell lines used in the research were purchased from the American Type Culture Collection (ATCC) and were cultured in media recommended by the manufacturer with the addition of FBS and antibiotics in an incubator ensuring appropriate culture conditions, i.e. humidity, temperature and CO2 concentration. Cells were seeded into multiwell plates and incubated with the test compounds for 48 hours. After this time, MTT and LDH tests were performed to assess cell viability. The MTT test is based on the ability to transform the substrate: [3-(4,5-dimethyl-2-thiazolyl)-2,5-diphenyl-2H-tetrazolium bromide into a colored product only by living cells. The absorbance at 570 nm, which corresponds to the absorption maximum for the product, is directly proportional to cell viability. The LDH test is based on testing the activity of the enzyme lactate dehydrogenase in the culture medium, which is released from cells as a result of damage to the cell membrane, e.g. as a result of cell death. Triton X-100 was used as a positive control in the test. The determination is colorimetric, the substrate is transformed by the released enzyme into a colored product, an increase in absorbance indicates a larger amount of the released enzyme, and thus confirms greater damage to cell membranes. Tables 7 and 8 present the results obtained, which correspond to the viability of cells incubated with the compounds in relation to the viability of cells constituting a control sample, i.e. incubated with the solvent (DMSO) at the same concentration as in the case of the groups tested in the MTT test or in relation to the results obtained for the Triton X-100 positive control in the LDH test. They indicate that the compounds are safe at the concentrations tested. Table 7. Viability of tested normal human cell lines: keratinocytes (HaCaT), fibroblasts (BJ) and primary melanocytes after incubation with the tested compounds - determination in the MTT test (% of solvent control ± SD) and LDH (percentage of positive control - Triton X-100.

[2] = test system: Keratinocytes (HaCaT); experiment: Safety, LDH test in keratinocytes; format: cell-based; settings: 48 hours, positive control Triton X-100
Experimental: as §1

[3] = test system: Primary melanocytes; experiment: Safety, LDH test in primary melanocytes; format: cell-based; settings: 48 hours, positive control Triton X-100
Experimental: as §1

[4] = test system: S. typhimurium TA1537; experiment: Ames microplate test, TA1537; format: cell-based, Salmonella typhimurium;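 note: reference level is the mean solvent-control yellow wells plus SD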
Experimental: (§2) Bacteria were grown overnight in growth medium.
(§3) Table 9. Ames microplate test results.

[5] = test system: Primary melanocytes; experiment: Safety, MTT test in primary melanocytes; format: cell-based; settings: 48 hours
Experimental: as §1

[6] = test system: Keratinocytes (HaCaT); experiment: Safety, MTT test in keratinocytes; format: cell-based; settings: 48 hours
Experimental: as §1

[7] = test system: Fibroblasts (BJ); experiment: Safety, LDH test in fibroblasts; format: cell-based; settings: 48 hours, positive control Triton X-100
Experimental: as §1

[8] = test system: S. typhimurium TA100; experiment: Ames microplate test, TA100; format: cell-based, Salmonella typhimurium;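 note: reference level is the mean solvent-control yellow wells plus SD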
Experimental: as §2, §3

[9] = test system: Chinese hamster ovary cell line (CHO-K1); experiment: Cytotoxicity in CHO-K1 cells (MTT) before the micronucleus test; format: cell-based; settings: 24 hours
How it was run: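 CHO-K1 cells in F-12K with 10% FBS, 37 °C, 5% CO2, exposed to compounds for 24 hours. Viability by MTT, relative to DMSO vehicle at matching concentration; used to pick safe concentrations for the micronucleus test.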

[10] = test system: neuroblastoma SH-SY5Y; experiment: Safety, MTT test in SH-SY5Y; format: cell-based; settings: 48 hours
Experimental: as §1

[11] = test system: human reconstructed epidermis model EpiDerm™; experiment: Extended skin irritation test in reconstructed human epidermis (EpiDerm), 2 and 7 days; format: cell-based; settings: for Il-1α in culture medium: medium after the first 24 hours
Experimental: In order to perform extended skin irritation (safety) tests on the reconstructed human epidermis, the exposure time to the tested compounds was extended to 2 and 7 days in the human reconstructed epidermis model EpiDerm™ from MatTek. The epidermis was cultured according to the manufacturer's recommendations, using appropriate multi-well plates and culture media. Solutions of the tested compounds were applied to the epidermis using a positive displacement pipette and distributed using a sterile glass bulb headed Pasteur pipette. […] The epidermis was cultured in an incubator ensuring appropriate humidity, temperature (37 °C) and CO2 concentration (5%). The medium was replaced daily. After an appropriate incubation time, i.e. 2 days or 7 days, the epidermis was rinsed with sterile DPBS and incubated with MTT (Thiazolyl Blue Tetrazolium bromide) solution at 37 °C for 3 hours. After this time, a purple color of formazan was observed, correlated with tissue viability. […] Moreover, in the medium collected after the first 24 hours of EpiDerm epidermis culture, the level of interleukin 1α (Il-1α), which is a mediator of inflammation, was determined. Its level correlates with the unfavorable (irritating) effect of the tested substances on the epidermis. The level of IL-1α was determined using the Cayman Elisa test. […] Table 6. Viability results and results of interleukin 1α concentration measurement in the culture medium in the irritation test in the reconstructed human epidermis model EpiDerm.

[12] = 2 days, 1.0% in 50% PEG (10 µL)
[13] = 7 days, 1.0% in 50% PEG (10 µL)

Which “Neuroblastoma SH-SYSY LDH” value ([1]; 100 µM) does the source give for O=C(/C=C/c1ccc(Cl)cc1)NCCCCCO [Compound A-111, (2E)-3-(4-chlorophenyl)-N-(5-hydroxypentyl)prop-2-enamide] here?
The value was 4.90 percentage of positive control.

What about the “Neuroblastoma SH-SYSY LDH” value ([1]; 150 µM) of the same compound?
Its value is 4.61 percentage of positive control.

And the “Neuroblastoma SH-SYSY LDH” value ([1]; 200 µM)?
Its value is 5.98 percentage of positive control.

And the “Neuroblastoma SH-SYSY LDH” value ([1]; 250 µM)?
The value was 6.77 percentage of positive control.

What about the “Keratinocytes (HaCaT) LDH” value ([2]; 100 µM) of the same compound?
The value was 4.69 percentage of positive control.

And the “Keratinocytes (HaCaT) LDH” value ([2]; 150 µM)?
The value was 4.43 percentage of positive control.

What about the “Keratinocytes (HaCaT) LDH” value ([2]; 200 µM) of the same compound?
The value was 6.49 percentage of positive control.

What about the “Keratinocytes (HaCaT) LDH” value ([2]; 250 µM) of the same compound?
The value was 13.55 percentage of positive control.

And the “Primary melanocytes LDH” value ([3]; 100 µM)?
Its value is 3.31 percentage of positive control.

And the “Primary melanocytes LDH” value ([3]; 150 µM)?
Its value is 4.95 percentage of positive control.

And the “Primary melanocytes LDH” value ([3]; 200 µM)?
Its value is 13.38 percentage of positive control.

And the “Primary melanocytes LDH” value ([3]; 250 µM)?
Its value is 18.41 percentage of positive control.

And the “Increase in the number of yellow wells compared to the reference level” value (from here on “Increase in the number of yellow wells”) ([4]; 0.5 mM, +S9)?
The value was 0.27.

What about the “Increase in the number of yellow wells” value ([4]; 0.5 mM, without S9) of the same compound?
Its value is 0.80.

And the “Increase in the number of yellow wells” value ([4]; 1.0 mM, +S9)?
The value was 0.45.

What about the “Increase in the number of yellow wells” value ([4]; 1.0 mM, without S9) of the same compound?
Its value is 0.54.

What about the “Increase in the number of yellow wells” value ([4]; 2.0 mM, +S9) of the same compound?
The value was 0.27.

And the “Increase in the number of yellow wells” value ([4]; 2.0 mM, without S9)?
Its value is 0.54.

What about the “Primary melanocytes MTT” value ([5]; 100 µM) of the same compound?
Its value is 104.51±1.19 % of solvent control.

And the “Primary melanocytes MTT” value ([5]; 150 µM)?
The value was 103.09±1.79 % of solvent control.

What about the “Primary melanocytes MTT” value ([5]; 200 µM) of the same compound?
The value was 99.25±1.92 % of solvent control.

And the “Primary melanocytes MTT” value ([5]; 250 µM)?
The value was 93.39±1.60 % of solvent control.

And the “Keratinocytes (HaCaT) MTT” value ([6]; 100 µM)?
Its value is 101.68±3.45 % of solvent control.

And the “Keratinocytes (HaCaT) MTT” value ([6]; 150 µM)?
The value was 101.56±1.94 % of solvent control.

And the “Keratinocytes (HaCaT) MTT” value ([6]; 200 µM)?
The value was 101.04±2.77 % of solvent control.

What about the “Keratinocytes (HaCaT) MTT” value ([6]; 250 µM) of the same compound?
The value was 91.57±2.10 % of solvent control.

And the “Fibroblasts (BJ) LDH” value ([7]; 100 µM)?
The value was 5.25 percentage of positive control.

What about the “Fibroblasts (BJ) LDH” value ([7]; 150 µM) of the same compound?
The value was 5.37 percentage of positive control.

And the “Fibroblasts (BJ) LDH” value ([7]; 200 µM)?
Its value is 8.43 percentage of positive control.

And the “Fibroblasts (BJ) LDH” value ([7]; 250 µM)?
Its value is 14.90 percentage of positive control.

What about the “Increase in the number of yellow wells” value ([8]; 0.5 mM, +S9) of the same compound?
Its value is 0.97.

What about the “Increase in the number of yellow wells” value ([8]; 0.5 mM, without S9) of the same compound?
The value was 0.74.

And the “Increase in the number of yellow wells” value ([8]; 1.0 mM, +S9)?
The value was 0.47.

And the “Increase in the number of yellow wells” value ([8]; 1.0 mM, without S9)?
The value was 0.39.

What about the “Increase in the number of yellow wells” value ([8]; 2.0 mM, +S9) of the same compound?
Its value is 0.67.

What about the “Increase in the number of yellow wells” value ([8]; 2.0 mM, without S9) of the same compound?
Its value is 0.42.

What about the “% Viability [mean]” value ([9]; 100 µM) of the same compound?
The value was 86.1%.

And the “% Viability [mean]” value ([9]; 150 µM)?
The value was 95.6%.

And the “% Viability [mean]” value ([9]; 200 µM)?
The value was 98.6%.

What about the “Neuroblastoma SH-SYSY MTT” value ([10]; 100 µM) of the same compound?
The value was 100.14±3.22 % of solvent control.

What about the “Neuroblastoma SH-SYSY MTT” value ([10]; 150 µM) of the same compound?
The value was 99.32±3.36 % of solvent control.

What about the “Neuroblastoma SH-SYSY MTT” value ([10]; 200 µM) of the same compound?
The value was 100.55±2.31 % of solvent control.

What about the “Neuroblastoma SH-SYSY MTT” value ([10]; 250 µM) of the same compound?
The value was 99.93±4.36 % of solvent control.

And the “Il-1α in culture medium” value ([11]; 1.0% in 50% PEG (10 µL))?
Its value is 15.89 ± .057 pg/mL.

What about the “Viability [% of control, mean±SD]” value ([11]; 2 days, 0.1% in 50% PEG (10 µL)) of the same compound?
The value was 88.42±1.25 % of control.

And the “Viability [% of control, mean±SD]” value ([11]; 2 days, 0.5% in 50% PEG (10 µL))?
The value was 92.02±3.47 % of control.

And the “Viability [% of control, mean±SD]” value [11, 12]?
Its value is 98.56±11.78 % of control.

What about the “Viability [% of control, mean±SD]” value ([11]; 7 days, 0.1% in 50% PEG (10 µL)) of the same compound?
Its value is 107.77±3.12 % of control.

What about the “Viability [% of control, mean±SD]” value ([11]; 7 days, 0.5% in 50% PEG (10 µL)) of the same compound?
The value was 113.85±4.03 % of control.

What about the “Viability [% of control, mean±SD]” value [11, 13] of the same compound?
Its value is 100.41±1.52 % of control.

What does the source list for O=C(/C=C/c1ccccc1)NCCCCCCO [H-425/21, (E)-N-(6-hydroxyhexyl)cinnamic acid amide]?
Increase in the number of yellow wells compared to the reference level ([4]; 0.5 mM, +S9): 1.33; Increase in the number of yellow wells compared to the reference level ([4]; 0.5 mM, without S9): 0.09; Increase in the number of yellow wells compared to the reference level ([4]; 1.0 mM, +S9): 0.00; Increase in the number of yellow wells compared to the reference level ([4]; 1.0 mM, without S9): 0.18; Increase in the number of yellow wells compared to the reference level ([4]; 2.0 mM, +S9): 1.00; Increase in the number of yellow wells compared to the reference level ([4]; 2.0 mM, without S9): 0.82; Increase in the number of yellow wells compared to the reference level ([8]; 0.5 mM, +S9): 0.50; Increase in the number of yellow wells compared to the reference level ([8]; 0.5 mM, without S9): 0.73; Increase in the number of yellow wells compared to the reference level ([8]; 1.0 mM, +S9): 0.69; Increase in the number of yellow wells compared to the reference level ([8]; 1.0 mM, without S9): 0.80; Increase in the number of yellow wells compared to the reference level ([8]; 2.0 mM, +S9): 0.58; Increase in the number of yellow wells compared to the reference level ([8]; 2.0 mM, without S9): 0.73; % Viability [mean] ([9]; 100 µM): 87.6%; % Viability [mean] ([9]; 150 µM): 83.8%; % Viability [mean] ([9]; 200 µM): 88.0%; Il-1α in culture medium ([11]; 1.0% in 50% PEG (10 µL)): 60.29 ± 1.08 pg/mL; Viability [% of control, mean±SD] [11, 12]: 99.75±15.49 % of control; Viability [% of control, mean±SD] [11, 13]: 104.01±1.11 % of control
